This is an account of results in PMC12022980, “Rational Design of PROTAC Linkers Featuring Ferrocene as a Molecular Hinge to Enable Dynamic Conformational Changes” (Journal of the American Chemical Society, 2025).

The nature of series [1]: ChromLogD (chromatographic). Format: physicochemical. Particulars: HPLC on Hypersil GOLD-C18 column, pH 7.4. Here is the method:
For the permeabilised-cell assay, 10 µL of digitonin was added, and plates were incubated in darkness for 5 minutes to allow permeabilisation. In each well 10 µL of the 10x PROTAC and vehicle control dilutions were dispensed. A 100x NanoBRET tracer solution (50 µM for VHL permeabilised-cell assay) was prepared with 100% DMSO, then diluted to a 20x solution with tracer dilution buffer. A 5 µL volume of tracer was dispensed into each well at a final concentration of 0.5 µM, and the plate was mixed at 300 RPM for 15 seconds. Finally, 50 µL of a 3x substrate solution (8.8 µL NanoBRET Nano-Glo substrate and 3,500 µL Opti-MEM) was added, and plates were incubated for 1 minute at room temperature before reading on a GloMax Discover as […]
HiBiT Lytic Assay with Zosuquidar Co-treatment
A modified HiBiT lytic assay was used to assess the activity of zosuquidar on the BET degradation. […]
Luminescence was measured using the GloMax® Multiplex Luminescence and Fluorescence Protocol for 96-well plates. The luminescence signal for each well was normalised to the fluorescence signal and further normalised to the mean values from iPrOH-treated controls, then expressed as a ratio relative to the vehicle control. Curve fitting and DC50 values were determined in GraphPad Prism v.10.0.3 using nonlinear regression with a three-parameter logistic model to calculate DC50 values.
The stock solution of each test item was prepared from a 10mM stock in iPrOH, which was further diluted 1:50 with […] to obtain a 0.2 mM solution (4 µL of the test item stock solution is diluted with 196 µL DMSO) in insert vials. The samples were analysed on an HPLC system equipped with a HPLC-ThermoScientific Hypersil GOLD-C18 column (2.1 x 50 mm, 1.9 µm) and by MS detection using electrospray ionization (ESI) and Atmospheric Pressure Chemical Ionization (APCI) on a Shimadzu LCMS 2050. […]
of 1 mL/min and a column temperature of 40 °C. […] Data were analysed with Shimadzu Open Solution Data Browser to obtain the RTs of the peak for each individual compound and standards. […]

The nature of series [2]: Kinetic solubility in phosphate buffer and FeSSIF. Format: physicochemical. The conditions noted are these: kinetic from iPrOH stock. Here is the method: Solubility in Phosphate Buffer and Fed State Simulated Intestinal Fluid (FeSSIF) 8 µL of reference or test compound stock solution (10 mM in iPrOH) was added to 792 μL of 100 mM phosphate buffer (pH 7.4) or FeSSIF (pH 5.8). The resulting mixture was shaken for 1 h (1000 rpm) at room temperature and then centrifuged for 10 min (12 000 rpm) to remove the undissolved particles. The supernatant was collected and diluted 10 times and 100 times separately with 100 mM phosphate buffer or FeSSIF. Five microliters of the supernatant samples (no diluted, 10 times diluted, 100 times diluted) were mixed with 95 μL of acetonitrile (containing internal standard) separately before injecting into LC-MS/MS for analysis. […]

The target of a further series is T1, VHL (Homo sapiens, UniProt P40337).
T1 construct: host or cells: HEK293, transient transfection
T1 sequence (P40337 whole entry): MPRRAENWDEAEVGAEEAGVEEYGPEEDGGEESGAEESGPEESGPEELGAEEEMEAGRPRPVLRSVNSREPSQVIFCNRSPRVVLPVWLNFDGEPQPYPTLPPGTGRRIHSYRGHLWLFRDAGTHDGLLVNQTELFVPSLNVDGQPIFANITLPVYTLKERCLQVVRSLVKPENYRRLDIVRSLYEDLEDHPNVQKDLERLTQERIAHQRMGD
The series can be described thus: NanoBRET VHL target engagement, live-cell mode. The class given is cell-based. The conditions noted are these: for IC50: HEK293 transfected with VHL-NanoLuc, live cells, tracer 1 μM. An excerpt: To this end, we assessed the PROTAC cellular permeability by evaluating VHL target engagement using the Promega NanoBRET TE Intracellular E3 Ligase.[62] Current PROTAC permeability assays use artificial systems like PAMPA and Caco-2, designed for small molecules but not always effective for PROTACs due to their low permeability, high molecular weight and assay caveats (i.e., unspecific binding and low recovery).[63],[64] The NanoBRET assay is a high-throughput method validated for measuring E3 ligase engagement in live and permeabilised cells. The assay allows to rank PROTAC intracellular availability through competitive probe displacement and offers a simple workflow for prioritising compounds based on properties associated with permeability. […] Specifically, in the live-cell mode, the assay measures the apparent cellular affinity, where the plasma membrane is intact and can impede the compound’s access to its target. In the permeabilised-cell mode, the barrier posed by the plasma membrane is removed and the intrinsic affinity of the compound for target is measured. […] The ratio of potencies between live-cell and permeabilised-cell modes, referred to as the relative-binding affinity (RBA) value increases as intracellular availability decreases and is thus a metric for assessing a PROTAC̀s cellular availability. […]

In a further series the target is T2, CRBN (Homo sapiens, UniProt Q96SW2).
T2 construct: endogenous in cells; host or cells: HEK293 (ATCC)
T2 sequence (Q96SW2 whole entry): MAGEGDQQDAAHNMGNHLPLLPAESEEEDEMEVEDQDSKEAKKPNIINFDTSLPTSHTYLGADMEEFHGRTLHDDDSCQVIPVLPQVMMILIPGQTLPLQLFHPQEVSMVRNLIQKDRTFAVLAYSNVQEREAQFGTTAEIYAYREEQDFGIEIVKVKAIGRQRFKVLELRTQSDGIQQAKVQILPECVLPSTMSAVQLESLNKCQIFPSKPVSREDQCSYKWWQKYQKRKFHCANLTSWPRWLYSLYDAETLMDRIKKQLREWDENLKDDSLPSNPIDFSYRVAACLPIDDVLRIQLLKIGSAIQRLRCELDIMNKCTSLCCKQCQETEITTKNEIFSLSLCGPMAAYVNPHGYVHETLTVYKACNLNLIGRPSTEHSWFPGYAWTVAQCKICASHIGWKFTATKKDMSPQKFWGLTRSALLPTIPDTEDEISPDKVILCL
The arrangement: method as in PMID 30826187. The conditions noted are these: cited from earlier work.

Setting [3] is: FeSSIF pH 5.8, read-out: kinetic solubility FeSSIF (pH 5.8).
Setting [4] is: phosphate buffer, aqueous buffer, PBS pH 7.4, read-out: kinetic solubility PBS (pH 7.4).

≈ marks a conversion by molar mass, not a printed value. Where two headings read alike, the source gives them in different places.

For the compound `Cc1ncsc1-c1ccc(CNC(=O)[C@@H]2C[C@@H](O)CN2C(=O)[C@@H](NC(=O)CCCCCOCCOCCCCCC(=O)Nc2cccc3c2C(=O)N(C2CCC(=O)NC2=O)C3=O)C(C)(C)C)cc1` (some centres unmarked) [14a], the chromatographic logD (in general, a lipophilicity value derived from retention on a column) in series [1] is 3.7. In addition, in series [2] (setting [3]), the kinetic solubility (as a rule, the concentration staying in solution when a stock, usually in DMSO, is diluted into the medium) at 1 h was 59.5 µM (≈ 57 µg/mL). The kinetic solubility at 1 h in series [2] (setting [4]) amounted to 8.7 µM (≈ 8.34 µg/mL). Besides, on VHL, the “AI (availability index = RBAPROTAC ÷ RBAVH298)” value amounted to 4.2, the “RBA (relative binding affinity = IC50live ÷ IC50perm)” value was 4.4, the “fold lower potency in live-cell vs permeabilised-cell assay” value turned out to be 4 fold and the IC50 (usually the concentration that gives 50% inhibition) amounted to 1330 nM. For the same compound, the DC50 on CRBN was 200 nM.

Compound `Cc1ncsc1-c1ccc(CNC(=O)[C@@H]2C[C@@H](O)CN2C(=O)[C@@H](NC(=O)COCCOCCOCCOCCOCCOCC(=O)N[C@H](C(=O)N2C[C@H](O)C[C@H]2C(=O)NCc2ccc(-c3scnc3C)cc2)C(C)(C)C)C(C)(C)C)cc1` [CM11] showed a chromatographic logD in series [1] of 3.2. Moreover, the kinetic solubility at 1 h in series [2] (setting [3]) came to 38.6 µM (≈ 45.5 µg/mL). The solubility (kinetic) at 1 h in series [2] (setting [4]) amounted to 58.2 µM (≈ 68.6 µg/mL). On VHL, the “AI (availability index = RBAPROTAC ÷ RBAVH298)” value came to 1.4, the “RBA (relative binding affinity = IC50live ÷ IC50perm)” value came to 1.4 and half-maximal inhibition (IC50) was put at 450 nM.
